Results on one compound are retold here after patent publication US20150191484A1, “NOVEL COMPOUNDS HAVING A TETRACYCLIC IRIDOID SKELTON AND AN ANTI-TRYPANOSOMAL AGENT COMPRISING THE SAME AS AN ACTIVE INGREDIENT” (NATIONAL UNIVERSITY CORPORATION TOKYO MEDICAL AND DENTAL …, priority 2014, published 2015).

For the test, the system named is Trypanosoma cells. Put plainly: Immunohistochemistry / immuno-fluorescence analysis (anti-α tubulin, DAPI). The class given is cell-based, Trypanosoma brucei brucei. The following applies: 15 μM (four times of IC50). As for the experimental part:
The GUTat 3.1 strain of the bloodstream forms of T. b. brucei parasites was used for this study. Parasites were cultured in vitro according to the conditions established by Yabu et al, 1998.
Parasites were used when they reached a confluent concentration of 1×10^6 parasites/ml. Estimation of parasitemia was done with the Neubauer's counting chamber. Parasites were diluted to a concentration of 3×10^5 parasites/ml with HMI-9 medium and used for the various experiments.
Immunohistochemistry was performed to detect any morphological or phenotypic changes which may be caused by extracts/compounds with trypanocidal effect. The initial steps of immunohistochemistry are the same as that for the Cell Cycle Assay. After fixing the parasites at −20° C. for an hour, 500 μl of the fixed parasites were transferred to an 8-chamber slide. The parasites were incubated at 4° C. overnight to allow the fixed parasites to adhere to the slide surface. The 70% EtOH was then discarded completely. 500 μl of PBS was added to each chamber and incubated for 5 min, after which PBS was discarded. The parasites were further washed with 500 μl of PBST (0.01% Triton X 100 in PBS) for 5 min and the washing solution discarded. 500 μl of blocking reagent (3% BSA in PBST) was added to the chamber and incubated for 30 min at room temperature, after which the blocking reagent was discarded. Each chamber was filled with 500 μl Anti-α tubulin antibody and incubated for 1 hour. The antibody was then discarded and the parasites were incubated with 500 μl of DAPI (5 μg/ml DAPI in PBS) for 10 min in the dark. The wells were washed twice with 500 μl of PBS and once with 500 μl of PBST. The 8-chamber block was detached from the slide and a few drops of parmafluor mounting reagent were put on the slide. The slide was covered carefully with a cover slip. The covered slide was allowed to dry in the dark and the edge of the cover slip sealed with clear nail varnish. The slide was observed under the Olympus fluorescent microscope.

`COc1cc(/C=C2/C(=O)O[C@]34C=C[C@@H]5C(C(=O)O)=CO[C@H](O[C@@H]23)[C@@H]54)ccc1O` [ML-2-3, (3aS,4aR,4a^1S,7aS,9aS,3E)-3-(4-hydroxy-3-methoxybenzylidene)-2-oxo-2,3,3a,4a,4a^1,7a-hexahydro-1,4,5-trioxadicyclopenta[a,hi]indene-7-carboxylic acid]: the “expression of α-tubulin” value was “significantly suppressed”, the flagellum phenotype result is “no flagellum phenotype” and the nuclear fragmentation result was “clearly induced the fragmented nuclei”.
